Data reported in PMC7782168, “Synthesis, telomerase inhibitory and anticancer activity of new 2-phenyl-4H-chromone derivatives containing 1,3,4-oxadiazole moiety” (Journal of Enzyme Inhibition and Medicinal Chemistry, 2020).

Legend:
[1] = system: A375 (human melanoma cell); test: In vitro anticancer (antiproliferative) MTT assay, A375; format: cell-based; conditions: Homo sapiens, A-375, mean ± SD of three experiments in triplicate
Protocol: (§1) A375, MDA-MB-231, MGC-803, SMMC-7721, SGC-7901 and L-02 cell lines were cultured in DMEM medium supplemented with 10% (V/V) heat-inactivated fetal bovine serum (FBS) (Biological Industries, Israel) along with 100 U/mL penicillin and […] streptomycin (Beyotime, China). Cells were grown in a humidified 5% CO2 atmosphere at 37 °C and maintained in a logarithmic growth phase for all experiments.
(§2) 2.5. Anticancer assay[23]

[2] = system: SMMC-7721 (human hepatoma cell); test: In vitro anticancer (antiproliferative) MTT assay, SMMC-7721; format: cell-based; conditions: Homo sapiens, SMMC-7721, mean ± SD of three experiments in triplicate
Protocol: as §1, §2

MGC-803 cells [3] = test: Cell cycle analysis by flow cytometry (PI staining); format: cell-based, human; conditions: 48 h
Protocol: For cell cycle analysis, cell cycle kit (Beyotime, China) was performed. MGC-803 cells were treated with compound A33 at different concentrations for 48 h. Untreated and treated cells were harvested, and then MGC-803 cells were washed three times using cold PBS. And then cells were fixed in 70% ethanol at −20 °C for 1 h. After fixation, cells were washed with cold PBS and stained with 0.5 ml of propidium iodide (PI) staining buffer, which contain […] RNase A and 50 µg/mL PI, at 37 °C for 30 min in the dark. Analyses were conducted on FACSVerse Flow Cytometer (Becton Dickinson). The experiments were repeated three times.
To verify whether cell cycle arrest leads to decrease cells proliferation, we used flow cytometric analysis to measure the effect of this compound on induction of cell cycle. […] In a word, this compound can induce cell cycle arrest at G2/M phase in a concentration-dependent manner, delaying cell cycle progression, thereby resulting in cell proliferation inhibition.
Figure 3. Cell cycle distribution induced by compound A33 was measured in MGC-803 cells. Cells were treated with compound A33 of 3, 6 and 9 μM for 48 h. Samples were analysed by flow cytometry and received results were analysed by modifit software. TEXT PRINTED IN THE PICTURE: A33: Dip G1:39.11% (3μM); Dip G2:29.46% (3μM); Dip S: 31.44% (3μM); Dip G1:35.72% (6μM); Dip G2:50.46% (6μM); Dip S: 13.82% (6μM); Dip G1:32.62% (9μM); Dip G2:55.13% (9μM); Dip S: 12.25% (9μM)

dyskerin = test: Western blotting of dyskerin expression in MGC-803 cells; format: cell-based, human; conditions: MGC-803 cells, 3, 6, 9 µM, 48 h
Protocol: (§3) Human MGC-803 cells were lysed with RIPA lysis buffer (Beyotime, China). Whole extracts were prepared, and protein concentration was detected using a BCA protein assay kit (Beyotime, China). The protein samples were separated by SDS-PAGE and blotted onto a PVDF membrane (Millipore Corp, Billerica, MA). After blockade of non-specific protein binding, […] blots were incubated at 4 °C for 8 h with primary antibodies. After extensive washing in TBS/Tween-20, the membranes were incubated at room temperature for 1 h with secondary antibodies. After washed in TBS/Tween-20, the blots were processed with distilled water for detection of antigen using the enhanced chemiluminescence system. Proteins were visualised with ECL-chemiluminescent kit (ECL-plus, Thermo Scientific).
(§4) Dyskerin-NOP10-NHP2, trimer proteins are the core components of telomerase, playing a key role in the stabilisation, activation and assembly of telomerase, and the loss of dyskerin function can influence telomerase activity. Dyskerin over-expression associated with a variety of tumour types has been reported. […] Meanwhile, NHP2[39] and NOP10[40], as the important components of dyskerin-NHP2-NOP10 trimer, had also been assessed together. […]
(§5) Figure 5. […] The proteins expression of Dyskerin, NOP10 and NHP2 were analysed by Western blotting. The results are expressed as relative expression against control expression. n = 3. […]

[4] = system: human normal liver cell (L-02); test: Toxicity against human normal liver cells, MTT assay; format: cell-based; conditions: triplicate
Protocol: as §1, §2
In order to determine the selective cytotoxicity of selected compounds, we subsequently conducted a proliferative inhibition assay with human normal liver cell (L-02). […] Therefore, in combination with the above points, it is quite meaningful to further explore the mechanisms of this compound.

telomerase = molecular target: T1, telomerase (Homo sapiens, UniProt O14746); test: Telomerase activity assay using MGC-803 cells extract; format: biochemical; conditions: mean ± SD
T1 construct: assayed for telomerase activity using MGC-803 cells extract; endogenous in cells; host or cells: MGC-803 cell extract
T1 sequence (O14746 whole entry): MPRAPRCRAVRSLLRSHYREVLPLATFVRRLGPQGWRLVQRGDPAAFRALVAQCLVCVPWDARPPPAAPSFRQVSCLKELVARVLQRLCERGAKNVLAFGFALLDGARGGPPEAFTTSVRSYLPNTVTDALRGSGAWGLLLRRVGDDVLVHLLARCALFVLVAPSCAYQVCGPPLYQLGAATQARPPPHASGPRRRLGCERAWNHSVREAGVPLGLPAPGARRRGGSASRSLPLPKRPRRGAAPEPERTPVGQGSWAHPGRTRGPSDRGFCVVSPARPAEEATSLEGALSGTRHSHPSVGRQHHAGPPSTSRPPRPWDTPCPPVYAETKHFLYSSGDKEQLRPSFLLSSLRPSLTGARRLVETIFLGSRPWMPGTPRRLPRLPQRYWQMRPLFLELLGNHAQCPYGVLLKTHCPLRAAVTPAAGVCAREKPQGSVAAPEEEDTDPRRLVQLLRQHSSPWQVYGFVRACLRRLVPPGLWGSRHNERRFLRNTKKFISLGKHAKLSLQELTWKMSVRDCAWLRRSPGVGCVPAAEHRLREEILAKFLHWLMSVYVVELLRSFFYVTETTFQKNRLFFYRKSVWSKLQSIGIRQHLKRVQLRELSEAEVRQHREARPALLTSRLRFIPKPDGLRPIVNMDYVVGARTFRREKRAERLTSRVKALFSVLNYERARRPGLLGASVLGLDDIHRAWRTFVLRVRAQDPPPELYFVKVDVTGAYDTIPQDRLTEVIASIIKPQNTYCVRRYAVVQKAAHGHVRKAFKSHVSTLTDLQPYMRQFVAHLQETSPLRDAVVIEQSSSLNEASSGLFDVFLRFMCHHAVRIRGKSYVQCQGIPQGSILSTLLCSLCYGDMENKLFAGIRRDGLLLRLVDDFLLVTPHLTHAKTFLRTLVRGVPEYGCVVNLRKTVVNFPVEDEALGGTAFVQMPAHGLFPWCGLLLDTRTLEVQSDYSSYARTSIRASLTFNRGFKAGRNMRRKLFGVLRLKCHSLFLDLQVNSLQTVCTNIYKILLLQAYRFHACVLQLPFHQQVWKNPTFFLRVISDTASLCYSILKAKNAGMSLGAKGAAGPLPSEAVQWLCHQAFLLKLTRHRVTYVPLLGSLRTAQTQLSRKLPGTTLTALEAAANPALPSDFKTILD
T1 sequence (O60832 2-514 partner limits assumed): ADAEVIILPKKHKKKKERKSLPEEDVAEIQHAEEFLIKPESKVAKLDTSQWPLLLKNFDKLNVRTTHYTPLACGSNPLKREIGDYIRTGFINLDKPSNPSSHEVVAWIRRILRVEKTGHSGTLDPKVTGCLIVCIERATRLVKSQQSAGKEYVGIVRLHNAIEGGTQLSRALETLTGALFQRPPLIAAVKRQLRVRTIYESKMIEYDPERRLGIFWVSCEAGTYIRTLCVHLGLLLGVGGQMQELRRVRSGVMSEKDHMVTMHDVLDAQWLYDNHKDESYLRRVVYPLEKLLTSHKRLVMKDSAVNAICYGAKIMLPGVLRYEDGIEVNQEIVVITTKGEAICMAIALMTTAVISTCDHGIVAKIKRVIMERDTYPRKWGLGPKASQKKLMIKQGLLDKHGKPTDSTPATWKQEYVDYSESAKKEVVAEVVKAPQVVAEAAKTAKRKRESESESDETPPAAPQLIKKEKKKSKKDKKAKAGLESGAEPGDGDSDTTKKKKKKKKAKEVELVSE
T1 sequence (Q9NPE3 whole entry partner): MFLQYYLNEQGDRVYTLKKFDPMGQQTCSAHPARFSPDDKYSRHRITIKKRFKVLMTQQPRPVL
T1 sequence (Q9NX24 whole entry partner): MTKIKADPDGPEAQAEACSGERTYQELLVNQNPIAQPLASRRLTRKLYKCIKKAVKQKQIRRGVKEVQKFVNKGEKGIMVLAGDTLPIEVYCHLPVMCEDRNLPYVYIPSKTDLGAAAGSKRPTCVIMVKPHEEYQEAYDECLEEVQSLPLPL
T1 sequence (Q9NY12 whole entry partner): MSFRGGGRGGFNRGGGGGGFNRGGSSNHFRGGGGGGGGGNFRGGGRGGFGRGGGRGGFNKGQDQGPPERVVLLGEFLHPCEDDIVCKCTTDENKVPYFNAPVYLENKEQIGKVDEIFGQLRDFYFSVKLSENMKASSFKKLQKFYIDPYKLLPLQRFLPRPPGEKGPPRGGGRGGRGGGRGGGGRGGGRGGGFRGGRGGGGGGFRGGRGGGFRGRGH

[5] = system: MDA-MB-231 (human breast cancer cell); test: In vitro anticancer (antiproliferative) MTT assay, MDA-MB-231; format: cell-based; conditions: Homo sapiens, MDA-MB-231, mean ± SD of three experiments in triplicate
Protocol: as §1, §2

NOP10 = test: Western blotting of NOP10 expression in MGC-803 cells; format: cell-based, human; conditions: MGC-803 cells, 3, 6, 9 µM, 48 h
Protocol: as §3, §4, §5

MGC-803 cells [6] = test: Apoptosis assay, Annexin V-FITC/PI flow cytometry; format: cell-based, human; conditions: 48 h, untreated 4.27%
Protocol: For cell apoptosis analysis, we employed annexin V-FITC/PI apoptosis detection kit (BestBio, China). MGC-803 cells in logarithmic growth phase were treated with compound A33 at different concentrations for 48 h. Cells were collected in cold PBS by centrifugation for 5 min at 1000 g. And then cells were re-suspended at a buffer (1 × 10^6 cells/mL), stained with FITC-labeled annexin V and PI for 20 min in the dark and immediately analysed on FACSVerse Flow Cytometer (Becton Dickinson).
To determine whether compound A33 meditated inhibition of proliferation was related with apoptosis, MGC-803 cells was selected for examination. The Annexin V-FITC/PI apoptosis detection kit was used in cell apoptosis analysis. […] This is consistent with the fact that telomerase inhibitors can induce apoptosis and thus inhibit the unlimited proliferation of tumour cells.
Figure 4. Percentage of apoptotic cells was determined in MGC-803 cells by Annexin-V FITC/PI staining. MGC-803 cells were treated with increasing concentrations of compound A33 for 48 h and stained with Annexin-V FITC/PI. Apoptotic ratio increased, accompanied with the increase of concentration. TEXT PRINTED IN THE PICTURE: A33: Q1-UL(1.08%) (3μM); Q1-UR(9.20%) (3μM); Q1-LL(87.53%) (3μM); Q1-LR(2.19%) (3μM); Q1-UL(4.60%) (6μM); Q1-UR(29.31%) (6μM); Q1-LL(38.09%) (6μM); Q1-LR(28.00%) (6μM); Q1-UL(4.54%) (9μM); Q1-UR(49.18%) (9μM); Q1-LL(8.50%) (9μM); Q1-LR(37.78%) (9μM) DOUBTS OF THE COPYIST ABOUT THIS PICTURE: A33 3μM, Q1-UR: 9.20% partly covered by plot points, first digit 9 or 8 / A33 6μM, Q1-UR: 29.31% partly covered by plot points, digits not fully certain / A33 9μM, Q1-UR: 49.18% partly covered by plot points, digits not fully certain

[7] = system: MGC-803 (human gastric cancer cell); test: In vitro anticancer (antiproliferative) MTT assay, MGC-803; format: cell-based; conditions: Homo sapiens, MGC-803, mean ± SD of three experiments in triplicate
Protocol: as §1, §2

NHP2 = test: Western blotting of NHP2 expression in MGC-803 cells; format: cell-based, human; conditions: MGC-803 cells, 3, 6, 9 µM, 48 h
Protocol: as §3, §4, §5

[8] = system: SGC-7901 (human gastric cancer cell); test: In vitro anticancer (antiproliferative) MTT assay, SGC-7901; format: cell-based; conditions: Homo sapiens, SGC-7901, mean ± SD of three experiments in triplicate
Protocol: as §1, §2

For `COc1cc(OC)c2c(=O)c(OCC(=O)Nc3nnc(/C=C/c4ccccc4)o3)c(-c3cc(OC)c(OC)c(OC)c3)oc2c1` [A33, (E)-2–(5,7-dimethoxy-4-oxo-2–(3,4,5-trimethoxyphenyl)-4H-chromen-3-yloxy)-N-(5-styryl-1,3,4-oxadiazol-2-yl)acetamide], which IC50 [1] is on record?
The IC50 was 11.2 ± 0.69 µM.

And the IC50 [2]?
Its IC50 is 9.67 ± 0.82 µM.

And the “G0/G1 phase distribution (Dip G1)” value (MGC-803 cells [3]; 3 μM)?
The value was 39.11%.

What about the “G2/M phase distribution (Dip G2)” value (MGC-803 cells [3]; 3 μM) of the same compound?
Its value is 29.46%.

What about the “S phase distribution (Dip S)” value (MGC-803 cells [3]; 3 μM) of the same compound?
The value was 31.44%.

What about the “G0/G1 phase distribution (Dip G1)” value (MGC-803 cells [3]; 6 μM) of the same compound?
The value was 35.72%.

And the “G2/M phase distribution (Dip G2)” value (MGC-803 cells [3]; 6 μM)?
The value was 50.46%.

What about the “S phase distribution (Dip S)” value (MGC-803 cells [3]; 6 μM) of the same compound?
The value was 13.82%.

What about the “G0/G1 phase distribution (Dip G1)” value (MGC-803 cells [3]; 9 μM) of the same compound?
The value was 32.62%.

What about the “G2/M phase distribution (Dip G2)” value (MGC-803 cells [3]; 9 μM) of the same compound?
Its value is 55.13%.

And the “S phase distribution (Dip S)” value (MGC-803 cells [3]; 9 μM)?
The value was 12.25%.

And the “Increase of the G2/M phase distribution versus untreated” value (MGC-803 cells [3]; increasing concentrations (3, 6, 9 µM), from 9.76 to 55.13%)?
Its value is 45.37%.

What about the “Expression level of dyskerin protein” value (dyskerin) of the same compound?
Its value is “reduced in a concentration-dependent manner”.

What about the IC50 [4] of the same compound?
Its IC50 is 2210 ± 170 µM.

And the IC50 (telomerase)?
Its IC50 is 0.44 ± 0.09 µM.

What about the IC50 [5] of the same compound?
The IC50 was 9.89 ± 0.44 µM.

And the “Expression of NOP10” value (NOP10)?
Its value is “lower level than control group”.

What about the “Percentage of AnnexinV-FITC binding MGC-803 cells” value (“Percentage” for short) (MGC-803 cells [6]; 3 μM (first of increasing concentrations, Figure 4)) of the same compound?
The value was 11.39%.

What about the “Percentage” value (MGC-803 cells [6]; 6 μM (second of increasing concentrations, Figure 4)) of the same compound?
The value was 57.31%.

What about the “Percentage” value (MGC-803 cells [6]; 9 μM (third of increasing concentrations, Figure 4)) of the same compound?
Its value is 86.96%.

What about the IC50 [7] of the same compound?
The IC50 was 8.76 ± 0.25 µM.

And the “Expression of NHP2” value (NHP2)?
The value was “lower level than control group”.

What about the IC50 [8] of the same compound?
Its IC50 is 10 ± 0.51 µM.
